Assay results: patent publication US20080171783A1, “COMPOSITIONS AND METHODS FOR TREATING HYPERPROLIFERATIVE DISEASE” (Migenix Inc., priority 2006, published 2008)

Target: T1, human polymerase alpha (Homo sapiens, UniProt P09884)
T1 construct: purchased Replizyme Ltd (Heslington, York, UK)
T1 sequence (P09884 1-1462): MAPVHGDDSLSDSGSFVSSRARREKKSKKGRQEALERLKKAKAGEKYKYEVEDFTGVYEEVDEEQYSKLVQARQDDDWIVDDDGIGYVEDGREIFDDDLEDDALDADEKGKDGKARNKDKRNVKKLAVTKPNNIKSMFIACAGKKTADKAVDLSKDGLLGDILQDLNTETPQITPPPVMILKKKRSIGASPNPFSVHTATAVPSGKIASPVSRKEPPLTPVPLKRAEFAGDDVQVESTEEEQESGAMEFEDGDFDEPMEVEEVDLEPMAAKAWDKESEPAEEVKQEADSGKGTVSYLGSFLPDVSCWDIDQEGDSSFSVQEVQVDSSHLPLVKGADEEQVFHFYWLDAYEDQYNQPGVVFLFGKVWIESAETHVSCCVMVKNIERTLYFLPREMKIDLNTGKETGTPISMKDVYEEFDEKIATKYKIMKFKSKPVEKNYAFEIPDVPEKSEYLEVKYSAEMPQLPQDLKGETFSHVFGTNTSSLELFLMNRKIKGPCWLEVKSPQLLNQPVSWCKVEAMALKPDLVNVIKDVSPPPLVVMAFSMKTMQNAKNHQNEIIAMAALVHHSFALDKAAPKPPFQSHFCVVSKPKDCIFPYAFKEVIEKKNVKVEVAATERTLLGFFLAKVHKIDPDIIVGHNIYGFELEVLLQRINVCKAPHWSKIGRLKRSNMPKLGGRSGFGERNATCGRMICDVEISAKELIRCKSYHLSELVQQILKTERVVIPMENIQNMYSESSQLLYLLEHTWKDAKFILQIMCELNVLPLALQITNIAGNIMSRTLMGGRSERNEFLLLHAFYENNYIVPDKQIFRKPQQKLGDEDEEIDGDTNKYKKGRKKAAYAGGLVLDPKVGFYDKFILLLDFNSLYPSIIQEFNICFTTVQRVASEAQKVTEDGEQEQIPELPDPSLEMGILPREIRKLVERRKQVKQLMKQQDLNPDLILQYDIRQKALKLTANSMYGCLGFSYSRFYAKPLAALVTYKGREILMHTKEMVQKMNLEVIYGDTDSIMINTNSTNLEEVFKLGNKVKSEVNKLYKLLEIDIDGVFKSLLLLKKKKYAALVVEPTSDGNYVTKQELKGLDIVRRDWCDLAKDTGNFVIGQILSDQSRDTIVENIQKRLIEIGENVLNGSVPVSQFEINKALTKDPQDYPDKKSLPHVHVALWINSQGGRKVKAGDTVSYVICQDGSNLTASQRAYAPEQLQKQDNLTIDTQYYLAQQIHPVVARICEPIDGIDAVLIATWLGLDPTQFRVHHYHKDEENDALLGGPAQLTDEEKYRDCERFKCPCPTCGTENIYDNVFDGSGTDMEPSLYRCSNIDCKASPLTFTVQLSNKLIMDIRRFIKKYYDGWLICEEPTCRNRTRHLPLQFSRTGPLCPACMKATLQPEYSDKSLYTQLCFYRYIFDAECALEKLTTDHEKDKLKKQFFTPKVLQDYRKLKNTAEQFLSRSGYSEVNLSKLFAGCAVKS
Experiment: Human polymerase alpha inhibition (Replizyme kit)
Assay type: biochemical
Details: dose response
Method: Calf polymerase alpha and human polymerase alpha investigations were performed with a kit available from Replizyme Ltd (Heslington, York, UK).

Cc1cc2cc(NC(=O)[C@H](CCCNC(=O)CN)NC(=O)Nc3ccc4c(c3)Cc3ccccc3-4)ccc2[nH]1 [Compound 297, (S)-5-(2-AMINO-ACETYLAMINO)-2-[3-(9H-FLUOREN-2-YL)-UREIDO]-PENTANOIC ACID (2-METHYL-1H-INDOL-5-YL)-AMIDE]
IC50: 10 µM
